We go through two molecules from patent US9474279B2, “Methods of controlling insects” (Syngenta Participations AG, priority 2012, dated 2016).

The structures appear in SMILES notation.

Assay type in all cases: in vivo
Assay [1] has as its system Nephotettix virescens (Green Leafhopper). The assay can be described thus: Nephotettix virescens (Green Leafhopper) rice seedling spray test, mortality. As to conditions: N5 nymphs, mortality 5 days after treatment. On the procedure:
[…] Nephotettix virescens (Green Leafhopper) Rice seedlings are treated with the diluted test solutions in a spray chamber. After drying, plants are infested with 10 N5 nymphs (3 replicates). 5 days after the treatment samples are checked for mortality.

Assay [2] relates to Chilo suppressalis (Rice Stem Borer). Kind of assay: Chilo suppressalis (Rice Stem Borer) treated rice leaf petri dish test, mortality. As to conditions: L2 larvae, mortality 5 days after treatment. The method, then: Chilo suppressalis (Rice Stem Borer) Rice seedlings are treated and after drying the leaves are cut and transferred into a petri dish coated with wet filter paper. 10 larvae (L2) are added and the dish is covered with a filter tissue and a plastic lid. 5 days after treatment the percentage mortality is assessed (3 replicates per concentration).

In assay [3] the test system is Nilaparvata lugens (Brown Plant Hopper). The assay can be described thus: Nilaparvata lugens (Brown Plant Hopper) rice seedling spray test, mortality. As to conditions: N3 nymphs, mortality 6-12 days after treatment. On the procedure:
Nilaparvata lugens (Brown Plant Hopper) Rice seedlings are treated with the diluted test solutions in a spray chamber. After drying, plants are infested with 20 N3 nymphs (2 replicates). 6-12 days after the treatment samples are checked for mortality

In the case of `CCN1OC[C@@H](NC(=O)c2ccc(C3=NO[C@@](c4cc(Cl)cc(Cl)c4)(C(F)(F)F)C3)cc2C)C1=O` [Compound A3], the Control/% in assay [1] (application rate 3 ppm) worked out at 90%; in assay [1] (application rate 12 ppm) it was 100%; in assay [1] (application rate 50 ppm), 100%; in assay [1] (application rate 200 ppm) it was 100%; in assay [2] (application rate 0.05 ppm) it was 97%; in assay [2] (application rate 0.2 ppm) it was 100%. In addition, the Control/% in assay [2] (application rate 0.8 ppm), in assay [3] (rate 12.5 ppm), in assay [3] (rate 25 ppm) and in assay [3] (rate 50 ppm) was 100% each time.
Turning to `Cc1cc(C2=NO[C@@](c3cc(Cl)cc(Cl)c3)(C(F)(F)F)C2)ccc1C(=O)N[C@@H]1CON(CC(F)(F)F)C1=O` [Compound A9], the Control/% in assay [1] (application rate 3 ppm) is listed as 100%; in assay [1] (application rate 12 ppm), 100%; in assay [1] (application rate 50 ppm) it was 100%; in assay [1] (application rate 200 ppm) it was 100%; in assay [2] (application rate 0.05 ppm) it was 43%; in assay [2] (application rate 0.2 ppm) it was 100%. Also, the Control/% in assay [2] (application rate 0.8 ppm) came to 100%; in assay [3] (rate 12.5 ppm), 98%; in assay [3] (rate 25 ppm) it was 100%; in assay [3] (rate 50 ppm), 100%.
